The test system of one data set is HCT116/VM46. The data set is described as follows: Reversal of multidrug resistance: resensitizing HCT116/VM46 to vinblastine and doxorubicin. In kind it is cell-based, human. The conditions noted are these: for resensitization of HCT116/VM46 compared with verapamil: vinblastine and doxorubicin.
Another data set has as its system HCT116. Put plainly: Cytotoxic activity against wild-type HCT116. Type of data set: cell-based, human. The protocol: (§1) Cytotoxic Activity and Reversal of Multidrug Resistance. […] (Quesada, A. R.; et al. Br. J. Cancer 1996, 74, 677.) With exception of ningalin A, (Ningalin A, lamellarin O, lukianol A, and permethyl storniamide A: Boger, D. L.; et al. J. Am. Chem. Soc. 1999, 121, 54.) the biological evaluation of the ningalin family has not been explored. Consequently, ningalin B and a number of structurally related synthetic intermediates were tested in a L1210 cytotoxic assay, and the results are summarized in FIGS. 6 and 10. […] (Ningalin A, lamellarin O, lukianol A, and permethyl storniamide A: Boger, D. L.; et al. J. Am. Chem. Soc. 1999, 121, 54.)
(Quesada, A. R.; et al. Br. J. Cancer 1996, 74, 677.) P-gp is a 170 kDa plasma membrane glycoprotein encoded in humans by the MDR1 gene which exports drugs out of mammalian cells, lowering their intracellular concentration. (Patel, N. H.; et al. Invest. New Drugs 1994, 12, 1. Gottesman, M. M.; et al. Annu. Rev. Biochem. 1993, 62, 385.) Therefore, 7-14 were also tested against a wild-type human colon cancer cell line (HCT116) and two resistant HCT116 cell lines. The first resistant cell line (HCT116/VM46) embodies the MDR phenotype and overexpresses P-glycoprotein while the second cell line (HCT116/VP35) derives its resistance through underexpression of topoisomerase II. The examination of the latter cell line along with the wild-type HCT116 and their comparison with HCT116VM46 allows an accurate assessment of the MDR sensitivity as well as an assessment of one potential therapeutic target.

Another data set concerns the target T1, Pgp-170 (Homo sapiens, UniProt P08183).
T1 construct: The first resistant cell line (HCT116/VM46) embodies the MDR phenotype and overexpresses P-glycoprotein; endogenous in cells; host or cells: HCT116/VM46 (drug-resistant human colon cancer cell line)
The data set is described as follows: Inhibition of dye efflux (rhodamine 123) from HCT116/VM46. To be noted: 30 min incubation in rhodamine 123 in phosphate buffer solution. In kind it is cell-based. The method, then:
FIG. 8 illustrates the inhibition of dye efflux (rhodamine 123) from the HCT116/VM46 cell line. Accumulation of rhodamine 123 in the HCT116/VM46 cell line after 30 min incubation in […] rhodamine in phosphate buffer solution (Quesada, A. R.; et al., Br. J. Cancer 1996, 74, 677).
Fundamentally more important, many of the agents were found capable of reversing MDR at noncytotoxic concentrations, resensitizing HCT116/VM46 to vinblastine and doxorubicin (FIGS. 7 and 11).

Another data set concerns L1210. Put plainly: L1210 cytotoxic assay. Type of data set: cell-based.
From the text: FIG. 6 illustrates a table with a comparison of the cytotoxic activity of ningalin B and some analogs with some commonly used compounds against three different cell lines.
as §1

Where [1] appears, read: cytotoxic activity relative to ningalin B.

“Also recorded” adds a separate entry of the source.

T1 sequence (P08183 whole entry): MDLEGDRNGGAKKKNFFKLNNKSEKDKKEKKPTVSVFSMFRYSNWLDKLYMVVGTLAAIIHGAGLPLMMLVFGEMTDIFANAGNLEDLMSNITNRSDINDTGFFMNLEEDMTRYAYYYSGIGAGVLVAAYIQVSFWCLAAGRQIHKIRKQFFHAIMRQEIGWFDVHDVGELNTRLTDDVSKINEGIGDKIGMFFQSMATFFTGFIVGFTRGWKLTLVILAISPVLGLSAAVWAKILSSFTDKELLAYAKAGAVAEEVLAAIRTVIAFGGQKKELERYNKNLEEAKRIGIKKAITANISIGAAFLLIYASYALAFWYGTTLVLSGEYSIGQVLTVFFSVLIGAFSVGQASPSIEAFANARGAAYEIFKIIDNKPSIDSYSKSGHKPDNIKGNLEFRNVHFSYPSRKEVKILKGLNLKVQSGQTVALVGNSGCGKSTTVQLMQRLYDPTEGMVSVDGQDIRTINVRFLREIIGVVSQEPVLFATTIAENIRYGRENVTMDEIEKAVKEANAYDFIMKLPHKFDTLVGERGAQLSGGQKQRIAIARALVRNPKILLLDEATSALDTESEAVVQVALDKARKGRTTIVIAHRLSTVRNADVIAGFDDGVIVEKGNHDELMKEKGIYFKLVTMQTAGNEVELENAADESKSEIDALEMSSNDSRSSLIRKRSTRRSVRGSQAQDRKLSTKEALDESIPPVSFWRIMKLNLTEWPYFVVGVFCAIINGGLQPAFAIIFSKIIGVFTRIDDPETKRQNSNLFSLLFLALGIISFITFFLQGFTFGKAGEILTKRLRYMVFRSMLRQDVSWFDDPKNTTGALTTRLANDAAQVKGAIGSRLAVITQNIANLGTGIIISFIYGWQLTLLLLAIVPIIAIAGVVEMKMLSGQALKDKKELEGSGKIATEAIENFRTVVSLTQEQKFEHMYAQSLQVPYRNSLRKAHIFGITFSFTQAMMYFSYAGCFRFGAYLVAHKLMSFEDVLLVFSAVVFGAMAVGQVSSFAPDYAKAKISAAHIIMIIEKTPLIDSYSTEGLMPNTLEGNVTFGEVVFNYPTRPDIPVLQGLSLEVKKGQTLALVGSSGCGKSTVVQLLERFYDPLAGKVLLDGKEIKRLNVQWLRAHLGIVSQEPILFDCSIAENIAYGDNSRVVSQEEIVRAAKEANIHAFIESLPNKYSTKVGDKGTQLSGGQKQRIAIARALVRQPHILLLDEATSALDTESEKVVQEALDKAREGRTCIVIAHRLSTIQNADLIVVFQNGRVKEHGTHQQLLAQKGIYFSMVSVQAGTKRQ

As for `COc1ccc(CCN(C)CCCC(C#N)(c2ccc(OC)c(OC)c2)C(C)C)cc1OC` (stereo not drawn) [verapamil, reference compound], the “MDR reversal in HCT116/VM46” value in the data set on HCT116/VM46 (agent at 7.5 μM) was “complete reversal”.

`COc1ccc(-c2c3n(c4c(=O)oc5cc(OC)c(OC)cc5c24)CCc2cc(OC)c(OC)cc2C3=O)cc1OC` [compound 14, 9,10-Dihydro-12,13-dimethoxy-1-(3′,4′-dimethoxyphenyl)-3,4-dimethoxy-[4,3-d]-[1]-benzopyrano-15H-benzazepino[3,2-a]-[3]-pyrrol-7,15(18H)-dione]: the “inherent cytotoxic activity (cell line not given)” value with HCT116 is on record as “lacking inherent cytotoxic activity”. In the data set with HCT116/VM46 (agent at 1 μM), the “MDR reversal in HCT116/VM46” value is “hypersensitivity of HCT116/VM46 to vinblastine”; the “ability to resensitize HCT116/VM46 to vinblastine and doxorubicin” value (from here on “ability to resensitize HCT116/VM46”) was “able to resensitize”; the “resensitization of HCT116/VM46 compared with verapamil” value is “more effectively than verapamil”. For the same compound, the “MDR reversal, resensitizing HCT116/VM46 to vinblastine and doxorubicin” value (“MDR reversal, resensitizing HCT116/VM46” for short) in the data set on HCT116/VM46 (concentration not given) is listed as “potently reverse MDR; also recorded: most potent MDR reversal agent identified in this series”. Besides, in the data set on HCT116/VM46 (concentration not given, vinblastine), the “sensitivity of HCT116/VM46 towards vinblastine in presence of agent” value is given as “hypersensitivity towards vinblastine”. Moreover, on Pgp-170, the “dye efflux (rhodamine 123) from HCT116/VM46” value is recorded as “inhibited dye efflux”.

Consider `COc1ccc(CCn2c(C(=O)N(C)C)c(-c3ccc(OC)c(OC)c3)c3c4cc(OC)c(OC)cc4oc(=O)c32)cc1OC` [compound 15, N,N-Dimethyl 7,8-Dimethoxy-3-(2-(3,4-dimethoxyphenyl)ethyl)-1-(3,4-dimethoxyphenyl)-[1]-benzopyrano[3,4-b]pyrrol-4(3H)-one-2-carboxamide], for which the “inherent cytotoxic activity (cell line not given)” value with HCT116 is recorded as “lacking inherent cytotoxic activity”. In the data set on HCT116/VM46 (concentration not given), the “MDR reversal, resensitizing HCT116/VM46” value is reported as “potently reverse MDR”.

Turning to `COCOc1cc(OC)c(OC)cc1-c1c(-c2ccc(OC)c(OC)c2)c(C(=O)OC)n(CCc2ccc(OC)c(OC)c2)c1C(=O)OC` [compound 10, Dimethyl 3-(4,5-Dimethoxy-2-(methoxymethoxy)phenyl)-4-(3,4-dimethoxyphenyl)-1-[2-(3,4-dimethoxyphenyl)ethyl]pyrrole-2,5-dicarboxylate], in the data set with HCT116, the “inherent cytotoxic activity (cell line not given)” value was “lacking inherent cytotoxic activity”. Besides, in the data set with HCT116/VM46 (agent at 1 μM), the “ability to resensitize HCT116/VM46” value is reported as “able to resensitize”; the “resensitization of HCT116/VM46 compared with verapamil” value is listed as “more effectively than verapamil”. The “MDR reversal in HCT116/VM46” value in the data set on HCT116/VM46 (agent at 7.5 μM) is “complete MDR reversal”. Moreover, the “MDR reversal, resensitizing HCT116/VM46” value with HCT116/VM46 (concentration not given) is “potently reverse MDR”.

Regarding `O=c1oc2cc(O)c(O)cc2c2c(-c3ccc(O)c(O)c3)cn(CCc3ccc(O)c(O)c3)c12` [ningalin B, Ningalin B], the “cytotoxic activity against L1210” value in the data set with L1210 (L1210 cell line) is “only moderately active”. For the same compound, the “cytotoxic activity against HCT116” value in the data set on HCT116 (wild-type human colon cancer cell line HCT116) is reported as “only moderately active”. For the same compound, in the data set on HCT116/VM46 (concentration not given), the “MDR reversal, resensitizing HCT116/VM46” value was “not”.

Turning to `COC(=O)c1c(-c2ccc(OC)c(OC)c2)c2c3cc(OC)c(OC)cc3oc(=O)c2n1CCc1ccc(OC)c(OC)c1` [compound 11, Methyl 7,8-Dimethoxy-3-(2-(3,4-dimethoxyphenyl)ethyl)-1-(3,4-dimethoxyphenyl)-[1]-benzopyrano[3,4-b]pyrrol-4(3B)-one-2-carboxylate], in the data set with HCT116/VM46 (agent at 1 μM), the “MDR reversal in HCT116/VM46” value is “complete MDR reversal”; the “ability to resensitize HCT116/VM46” value is “able to resensitize”; the “resensitization of HCT116/VM46 compared with verapamil” value is recorded as “more effectively than verapamil”. For the same compound, in the data set on HCT116/VM46 (agent at 7.5 μM), the “MDR reversal in HCT116/VM46” value is on record as “hypersensitive to vinblastine”. In addition, in the data set on HCT116/VM46 (concentration not given), the “MDR reversal, resensitizing HCT116/VM46” value is reported as “potently reverse MDR”.

In the case of `COc1ccc(CCn2cc(-c3ccc(OC)c(OC)c3)c3c4cc(OC)c(OC)cc4oc(=O)c32)cc1OC` [compound 13, Hexamethyl Ningalin B], in the data set on L1210 (setting [1]), the “fold less active against L1210 than ningalin B” value came to 5 fold. For the same compound, in the data set with HCT116 (setting [1]), the “fold less active against HCT116 than ningalin B” value came out at 2.5 fold. Moreover, in the data set with HCT116/VM46 (agent at 1 μM), the “MDR reversal in HCT116/VM46” value was “complete MDR reversal”; the “ability to resensitize HCT116/VM46” value is on record as “able to resensitize”; the “resensitization of HCT116/VM46 compared with verapamil” value was “more effectively than verapamil”. Besides, the “MDR reversal in HCT116/VM46” value with HCT116/VM46 (agent at 7.5 μM) is listed as “hypersensitive to vinblastine”. Further, in the data set on HCT116/VM46 (concentration not given), the “MDR reversal, resensitizing HCT116/VM46” value is “potently reverse MDR”.

(Values after patent US7250409B2, “Ningalin B analogs employable for reversing multidrug resistance” (The Scripps Research Institute, priority 2000, dated 2007).)
